Measured values from US5656603A (Loyola University of Chicago, priority 1995, dated 1997).

Assays:
[1] = molecular target: T1, partially purified human lung membrane-bound aminopeptidase P (Homo sapiens, UniProt O43895); test: Aminopeptidase P inhibition, release of arginine from Arg-Pro-Pro (fluorescent assay); assay type: biochemical
T1 construct: from tissue; host or cells: human lung microsomes
Experimental: (§1) The IC50 of the compound of the present invention in relation to aminopeptidase P was also determined. […] The specificity of the compound of the present invention for other aminopeptidases was similarly determined as described in the Experimental Procedures herein.
(§2) Enzymes--Membrane-bound aminopeptidase P was purified to homogeneity from bovine lung (14) and from rat lung. Partially purified membrane-bound aminopeptidase P from human lung was obtained by treatment of lung microsomes with phosphatidylinositol-specific phospholipase C (B. thuringiensis) (ICN, Costa Mesa, Calif.) followed by centrifugation as described previously (14). Membrane dipeptidase was purified from rat lung microsomes (manuscript in preparation). Recombinant E. coli aminopeptidase P (22) and purified lamb kidney prolyl oligopeptidase (23) were generally supplied by Dr. Tadashi Yoshimoto (Nagasaki University). Purified porcine kidney prolidase and purified porcine kidney aminopeptidase M was obtained from Sigma (St. Louis, Mo.).
(§3) Enzyme Kinetics--Aminopeptidase P activity was determined by measuring the release of arginine from Arg-Pro-Pro by a fluorescent assay described previously (14). […] Each mixture was run in duplicate. Aliquots were removed from each incubation mixture at various times and assayed for the amount of arginine present to determine the reaction velocity. In general, reaction velocities were calculated from data representing less than 20% cleavage of substrate. Ki and Ki ' (=αKi) were determined from plots of 1/v versus concentration of inhibitor "i" (26) and S/v versus concentration of inhibitor "i" (27), respectively. These parameters were also determined from the slope replot and 1/v-intercept replot, respectively, of the 1/v versus 1/S plot (28). […] The values from the two treatments of the data were averaged for each experiment. Experiments for each enzyme preparation were performed twice and the results averaged.

[2] = molecular target: T2, purified rat lung membrane-bound aminopeptidase P (Rattus norvegicus, UniProt Q99MA2); test: as above; assay type: biochemical
T2 construct: from tissue; host or cells: rat lung
T2 sequence (Q99MA2 23-674): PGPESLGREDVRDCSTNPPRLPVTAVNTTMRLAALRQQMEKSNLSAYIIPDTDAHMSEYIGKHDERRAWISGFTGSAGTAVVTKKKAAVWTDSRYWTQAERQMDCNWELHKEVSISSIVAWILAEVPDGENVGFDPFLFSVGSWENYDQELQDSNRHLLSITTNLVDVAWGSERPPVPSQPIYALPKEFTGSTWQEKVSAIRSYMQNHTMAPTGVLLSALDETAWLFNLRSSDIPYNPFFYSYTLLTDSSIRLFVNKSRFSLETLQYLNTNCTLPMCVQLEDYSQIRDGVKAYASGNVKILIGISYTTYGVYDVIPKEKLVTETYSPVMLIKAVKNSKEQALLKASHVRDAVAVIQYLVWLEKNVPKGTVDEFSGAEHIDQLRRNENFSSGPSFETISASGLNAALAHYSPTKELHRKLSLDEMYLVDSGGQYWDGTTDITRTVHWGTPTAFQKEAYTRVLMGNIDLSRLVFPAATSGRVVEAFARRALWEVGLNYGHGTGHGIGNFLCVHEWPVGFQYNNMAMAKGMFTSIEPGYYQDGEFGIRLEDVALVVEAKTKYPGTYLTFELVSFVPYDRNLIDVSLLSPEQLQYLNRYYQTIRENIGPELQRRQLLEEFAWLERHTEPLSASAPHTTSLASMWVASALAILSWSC
Experimental: as §1, §2, §3

T1 sequence (O43895 22-674): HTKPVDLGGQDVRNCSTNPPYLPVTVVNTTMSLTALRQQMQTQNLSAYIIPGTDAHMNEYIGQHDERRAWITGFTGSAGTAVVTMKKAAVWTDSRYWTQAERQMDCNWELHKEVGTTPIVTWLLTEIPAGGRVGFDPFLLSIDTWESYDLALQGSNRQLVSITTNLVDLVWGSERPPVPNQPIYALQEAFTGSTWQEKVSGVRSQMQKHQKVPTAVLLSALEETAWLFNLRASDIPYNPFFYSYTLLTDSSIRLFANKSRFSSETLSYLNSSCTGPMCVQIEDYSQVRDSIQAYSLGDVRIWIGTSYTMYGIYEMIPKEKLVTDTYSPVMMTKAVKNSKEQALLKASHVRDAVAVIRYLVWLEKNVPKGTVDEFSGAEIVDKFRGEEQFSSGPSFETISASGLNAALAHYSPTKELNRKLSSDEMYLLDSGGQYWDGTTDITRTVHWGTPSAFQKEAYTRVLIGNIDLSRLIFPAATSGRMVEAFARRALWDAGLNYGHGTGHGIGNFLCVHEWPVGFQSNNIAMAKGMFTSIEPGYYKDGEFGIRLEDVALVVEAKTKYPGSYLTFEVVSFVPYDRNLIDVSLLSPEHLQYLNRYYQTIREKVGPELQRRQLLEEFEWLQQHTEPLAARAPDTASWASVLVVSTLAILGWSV

C[C@H](NC(=O)[C@@H]1CCCN1C(=O)[C@@H]1CCCN1C(=O)[C@@H](O)[C@H](N)Cc1ccccc1)C(N)=O [apstatin, N-[(2S, 3R)-3-amino-2-hydroxy-4-phenylbutanoyl]-L-prolyl-L-prolyl-Lalaninamide]
type of inhibition ([1]; human lung aminopeptidase P): linear mixed-type
α (αKi = equilibrium constant for enzyme-inhibitor binding at infinite substrate concentration) ([1]; human lung, partially purified membrane-bound form): 11.
dependence of inhibition on Mn+2 [2]: not dependent on the presence of Mn^+2
reversibility of inhibition ([2]; 100-fold dilution of a preincubated enzyme-apstatin mixture): indicating reversibility
effect of preincubation on degree of inhibition (time-dependent or slow-tight binding inhibition) ([2]; preincubation of rat aminopeptidase P for up to 2 hr. at 4° C. before addition of substrate): did not increase the degree of inhibition
type of inhibition ([2]; rat lung aminopeptidase P): linear mixed-type
α (αKi = equilibrium constant for enzyme-inhibitor binding at infinite substrate concentration) ([2]; rat lung, purified membrane-bound form): 5.1
Ki ([2]; rat lung, purified membrane-bound form, substrate Arg-Pro-Pro, 0.1 M Hepes pH 8.0, 39° C.): 2600 nM
